Target: T1, Low molecular weight protein-tyrosine phosphatase A (Mycobacterium tuberculosis (strain ATCC 25618 / H37Rv), UniProt P9WIA1)
T1 sequence (P9WIA1 whole entry): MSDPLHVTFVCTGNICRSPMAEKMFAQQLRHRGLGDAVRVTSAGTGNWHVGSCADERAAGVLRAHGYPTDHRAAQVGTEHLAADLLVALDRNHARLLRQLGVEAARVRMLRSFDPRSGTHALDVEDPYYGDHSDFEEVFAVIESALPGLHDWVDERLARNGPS
Assay: Inhibition of Mycobacterium tuberculosis PTP-A

| SMILES | IC50 [µM] |
| --- | --- |
| C=c1[nH]c(=Cc2[nH]c(-c3ccc[nH]3)cc2OC)cc1CCCCC [PRODIGIOSIN] | 8.8 |
| COc1cc(-c2[nH]ccc2Cl)oc1C1=c2[nH]c3cc2[C@H](C(C)C)[C@H]1CCCCCCCC=3 | 8.8 |

Source: BindingDB's records for doi:10.1021/jm2012062 (Universidade Federal De Santa Catarina, 2012)
